In patent US11180479B2 (HAPLOGEN GmbH, priority 2017, dated 2021):
pEC50, pIC50: −log10 of the molar value.

What was measured:
PLA2G16 = biological target: T1, PLA2G16 (Homo sapiens, UniProt P53816); experiment: Enzyme activity assay for PLA2G16 (Red/Green BODIPY PC-A2 fluorescence); assay type: biochemical; conditions: His-tagged PLA2G16, 4 min pre-incubation, compound 2 nM to 50 μM; first symbol in parentheses
T1 construct: Hexa-His (N); made in house; host or cells: E. coli BL21(DE3)
T1 sequence (P53816 1-162): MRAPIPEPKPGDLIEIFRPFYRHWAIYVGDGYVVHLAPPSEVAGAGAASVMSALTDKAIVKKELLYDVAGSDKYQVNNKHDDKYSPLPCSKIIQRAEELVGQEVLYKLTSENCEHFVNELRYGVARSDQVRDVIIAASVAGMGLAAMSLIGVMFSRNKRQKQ
From the text: Purification and Enzyme Activity Assay for PLA2G16
A cDNA for PLA2G16 (NM_007069) was custom-synthesized by Genscript (Piscataway, USA) and inserted into a pET-based bacterial expression vector [Moffatt, B. A. and Studier, F. W. (1986) J. Mol. Biol. 189, 113-130; Rosenberg, A. H., Lade, B. N., Chui, D., Lin, S., Dunn, J. J., and Studier, F. W. (1987) Gene 56, 125-135], enabling the expression of N-terminally Hexa-His-tagged PLA2G16. E. coli BL21(DE3) (Agilent) were transformed with pET-His-PLA2G16 according to the manufacturer's instructions and plated on Carbenicillin-containing agar plates (final concentration: 100 μg/mL). A single clone was inoculated in 100 mL LB medium supplemented with 100 μg/mL Carbenicillin and the inoculated culture was grown at 37° C. overnight in a rotary shaker. On the next day, the bacterial culture was diluted in LB medium supplemented with 100 μg/mL Carbenicillin (30 mL overnight culture in 800 mL total culture volume). Bacteria were grown at 37° C. until the OD600 reached 0.6. Gene expression was induced by addition of 1 mM isopropyl-β-D-thiogalactopyranosid (IPTG) for 2 h at 18° C. Subsequently, bacteria were harvested by centrifugation (15 min; 10,000×g; 4° C.) and frozen at −80° C. The bacterial pellet was resuspended in Buffer A (50 mM Tris/HCl pH 7.5, 500 mM NaCl, 5% glycerol, 5 mM β-Mercaptoethanol and 1 mM PMSF) and lysed by addition of 1 mg/mL lysozyme (Sigma Aldrich) and 100 μg/mL DNasel-(Roche). The sample was incubated at 30° C. for 30 min to allow lysis to occur. Then, the lysate was cleared by centrifugation (15,000×g, 15 min, 4° C.) and incubated with 1.5 mL Ni-NTA agarose suspension (Qiagen) for 60 min at 4° C. The Ni-NTA agarose was washed with 10 mL Buffer A. Bound protein was eluted by applying a manual gradient of Buffer A supplemented with increasing concentrations of imidazole (Sigma Aldrich; 25/50/75/100/250 mM). Purified fractions were analyzed by SDS-PAGE followed by Coomassie staining to assess the purity.
Activity of the protein was assessed as follows:
Red/Green BODIPY® PC-A2 (Invitrogen, 1 mM in DMSO) was mixed with equal volumes of 1,2-Dioleoyl-sn-glycero-3-phosphocholine (DOPC; Sigma Aldrich, 10 mM in Ethanol) and 1,2-Dioleoyl-sn-glycero-3-phospho-rac-(1-glycerol) (DOPG; Sigma Aldrich, 10 mM in Ethanol) and 0.5 volumes of Cholesterol (CHOL; Sigma Aldrich, 10 mM in Ethanol) and vortexed for 5 s. The mixture (Red/Green BODIPY® PC-A2/DOPC/DOPG/CHOL) was diluted 1:91.4 in activity assay buffer (50 mM Tris/HCl pH 8.5, 100 mM NaCl) using a small-orifice pipette tip under constant vortexing. In the following, this preparation will be referred to as the “substrate solution”.
In order to evaluate their inhibitory potential, compounds were dissolved at 10 mM concentration in DMSO and directly spotted into assay plates (Corning, Cat. No. 3576) using acoustic liquid transfer (Labcyte Echo 525). Each compound was spotted at increasing concentrations, ranging from 2 nM to 50 μM (concentration in the final assay volume). 50 μl of PLA2G16 enzyme solution (diluted in activity buffer, supplemented with 5 mM L-Glutathione; Sigma Aldrich) was pre-incubated with compounds for 4 min., followed by addition of 50 μl of substrate solution. Fluorescence was recorded immediately after substrate addition for a total time of 10 min. using a SpectraMax M5 multimode reader (Excitation wavelength: 480 nm, emission wavelength: 530 nm). The relative increase of fluorescence over time is referred to as the enzyme activity. Half-maximal inhibitory concentrations (IC50) were derived by non-linear regression analysis using the drc package in R (R Development. Core Team, 2005).

[1] = tested on: picornaviruses (CVB1, HRV-A2, HRV-A23, EV-68); experiment: Anti-picornavirus cytopathic effect (CPE) reduction assay on HeLa H1 cells; assay type: cell-based; conditions: 48 h, category from averaging EC50 values of four picornaviruses (CVB1, HRV-A2, HRV-A23, EV68), second symbol in parentheses
Protocol: Anti-Picornavirus Assay in Mammalian Cell Culture
The antiviral activity of selected compounds was tested using a cytopathic effect (CPE) reduction assay on HeLa H1 cells (ATCC CRL-1958). Briefly, cells were seeded in 96-well dishes (2×10^4 cells/well) in DMEM medium (Life technologies) supplemented with 10% FBS and PenStrep solution (100 U/mL Penicillin and 100 μg/mL streptomycin) and incubated at 37° C., 5% CO2 overnight. The next day, cells were pre-treated with serial dilutions of the compound in DMEM medium supplemented with 2% FBS and PenStrep for 2 h at 37° C., 5% CO2. Next, cells were infected with virus (CVB1, HRV-A2, HRV-A23, EV-68) at an multiplicity of infection (MOI) which results in a complete virus-induced CPE within 2 days in control wells (infected and vehicle-treated). After 48 h, supernatants were aspirated and 50 μl/well of CellTiterBlue reagent (Promega) diluted 1:5 in DMEM+2% FBS, was added to the cells. Plates were returned to the incubator and allowed to develop for 1.5 h. After that, plates were equilibrated to RT and subsequently, fluorescence was recorded (Excitation wavelength: 560 nm; emission wavelength: 590 nm) using a SpectraMax M5 multimode plate reader. Viability of cells was calculated according to the formula: V=(RFUCpd−RFUVeh/(RFUM−RFUVeh), where RFUCpd refers to infected and compound-treated cells, RFUVeh to infected and vehicle-treated cells and RFUM to uninfected and vehicle treated cells. Half-maximal effective concentrations (EC50) were calculated by non-linear regression analysis using the drc package in R (R Development. Core Team, 2005). EC50 categories as presented in Table 2 were calculated by averaging the EC50 values from four picornaviruses (CVB1, HRV-A2, HRV-A23, EV68).

Structure (SMILES)	pIC50 (PLA2G16)	pEC50 [1]
CC(F)(F)CNC(=O)C(=O)[C@@H]1CNC(=O)[C@H]1c1ccccc1 (single isomer, unassigned) [FP-87]	5.00 to 6.00	< 5.00
CC(C)NC(=O)C(=O)[C@H]1CNC(=O)[C@@H]1c1ccc(F)cc1 (racemic) [FP-27, Rac-2-[(3R,4S)-4-(4-fluorophenyl)-5-oxopyrrolidin-3-yl]-2-oxo-N-(propan-2-yl)acetamide]	> 6.00	5.00 to 6.00
O=C(NC1CC1)C(=O)[C@@H]1CN(c2cnccn2)C(=O)[C@H]1Cc1ccccc1 (single isomer, unassigned) [FP-94]	> 6.00	5.00 to 6.00
COc1ccc(CN2C[C@H](C(=O)C(=O)NC3CC3)[C@@H](c3ccccc3)C2=O)cc1 (racemic) [FP-102, Rac-N-cyclopropyl-2-[(3R,4S)-1-[(4-methoxyphenyl)methyl]-5-oxo-4-phenylpyrrolidin-3-yl]-2-oxoacetamide]	> 6.00	> 6.00
O=C(NC1CC1)C(=O)[C@H]1CN(c2cnccn2)C(=O)[C@@H]1Cc1ccccc1 (racemic) [FP-57, Rac-2-[(3R,4R)-4-benzyl-5-oxo-1-(pyrazin-2-yl)pyrrolidin-3-yl]-N-cyclopropyl-2-oxoacetamide]	> 6.00	> 6.00
CC(C)ONC(=O)C(=O)[C@H]1CNC(=O)[C@@H]1Cc1ccccc1 (racemic) [FP-8, Rac-2-[(3R,4R)-4-benzyl-5-oxopyrrolidin-3-yl]-2-oxo-N-(propan-2-yloxy)acetamide]	> 6.00	5.00 to 6.00
O=C(NC1CC1)C(=O)[C@H]1CN(c2cccc(=O)[nH]2)C(=O)[C@@H]1Cc1ccccc1 (racemic) [FP-70, Rac-2-[(3R,4R)-4-benzyl-5-oxo-1-(6-oxo-1,6-dihydropyridin-2-yl)pyrrolidin-3-yl]-N-cyclopropyl-2-oxoacetamide]	> 6.00	> 6.00
CC(C)CNC(=O)C(=O)[C@@H]1CN(CC(=O)N(C)C)C(=O)[C@H]1Cc1ccccc1 (single isomer, unassigned) [FP-91]	5.00 to 6.00	< 5.00
CCCNC(=O)C(=O)[C@H]1CNC(=O)[C@@H]1c1ccccc1 (racemic) [FP-18, Rac-2-oxo-2-[(3R,4S)-5-oxo-4-phenylpyrrolidin-3-yl]-N-propylacetamide]	> 6.00	5.00 to 6.00
O=C(NC1CC1)C(=O)[C@H]1CN(c2cc(Cl)cc(OCc3ccccc3)n2)C(=O)[C@@H]1Cc1ccccc1 (racemic) [FP-72, Rac-2-[(3R,4R)-4-benzyl-1-[6-(benzyloxy)-4-chloropyridin-2-yl]-5-oxopyrrolidin-3-yl]-N-cyclopropyl-2-oxoacetamide]	> 6.00	> 6.00
CC(F)(F)CNC(=O)C(=O)[C@H]1CN(c2cccc(OCc3ccccc3)n2)C(=O)[C@@H]1Cc1ccccc1 (racemic) [FP-73, Rac-2-[(3R,4R)-4-benzyl-1-[6-(benzyloxy)pyridin-2-yl]-5-oxopyrrolidin-3-yl]-N-(2,2-difluoropropyl)-2-oxoacetamide]	> 6.00	> 6.00
Cc1ncncc1N1C[C@H](C(=O)C(=O)NC2CC2)[C@@H](Cc2ccccc2)C1=O (racemic) [FP-67, Rac-2-[(3R,4R)-4-benzyl-1-(4-methylpyrimidin-5-yl)-5-oxopyrrolidin-3-yl]-N-cyclopropyl-2-oxoacetamide]	> 6.00	5.00 to 6.00
O=C(NC1CCC1)C(=O)[C@H]1CNC(=O)[C@@H]1c1ccccc1 (racemic) [FP-19, Rac-N-cyclobutyl-2-oxo-2-[(3R,4S)-5-oxo-4-phenylpyrrolidin-3-yl]acetamide]	> 6.00	> 6.00

Next, values leading:

pIC50 (PLA2G16)	pEC50 [1]	Structure (SMILES)
> 6.00	5.00 to 6.00	CC(F)(F)CNC(=O)C(=O)[C@H]1CN(c2cncnc2C#N)C(=O)[C@@H]1Cc1ccccc1 (racemic) [FP-66, Rac-2-[(3R,4R)-4-benzyl-1-(4-cyanopyrimidin-5-yl)-5-oxopyrrolidin-3-yl]-N-(2,2-difluoropropyl)-2-oxoacetamide]
> 6.00	> 6.00	O=C(NCC1CC1)C(=O)[C@H]1CNC(=O)[C@@H]1Cc1ccc(F)cc1 (racemic) [FP-31, Rac-N-(cyclopropylmethyl)-2-[(3R,4R)-4-[(4-fluorophenyl)methyl]-5-oxopyrrolidin-3-yl]-2-oxoacetamide]
> 6.00	> 6.00	O=C(NCC(F)F)C(=O)[C@H]1CNC(=O)[C@@H]1Cc1ccccc1 (racemic) [FP-4, Rac-2-[(3R,4R)-4-benzyl-5-oxopyrrolidin-3-yl]-N-(2,2-difluoroethyl)-2-oxoacetamide]
> 6.00	> 6.00	O=C(NCCC1CC1)C(=O)[C@H]1CNC(=O)[C@@H]1c1ccccc1 (racemic) [FP-24, Rac-N-(2-cyclopropylethyl)-2-oxo-2-[(3R,4S)-5-oxo-4-phenylpyrrolidin-3-yl]acetamide]
> 6.00	> 6.00	O=C(NC1CC1)C(=O)[C@H]1CNC(=O)[C@@H]1Cc1ccc(F)cc1 (racemic) [FP-29, Rac-N-cyclopropyl-2-[(3R,4R)-4-[(4-fluorophenyl)methyl]-5-oxopyrrolidin-3-yl]-2-oxoacetamide]
> 6.00	5.00 to 6.00	CC(F)(F)CNC(=O)C(=O)[C@@H]1CN(c2cncnc2)C(=O)[C@H]1Cc1ccccc1 (single isomer, unassigned) [FP-96]
> 6.00	> 6.00	CC(C)(C)NC(=O)C(=O)[C@H]1CNC(=O)[C@@H]1c1ccccc1 (racemic) [FP-17, Rac-N-tert-butyl-2-oxo-2-[(3R,4S)-5-oxo-4-phenylpyrrolidin-3-yl]acetamide]
